From PMC9795544, “Identifying Novel Inhibitors for Hepatic Organic Anion Transporting Polypeptides by Machine Learning-Based Virtual Screening” (Journal of Chemical Information and Modeling, 2022) come the findings set out here.

Holding throughout (type): cell-based
One assay has as its target T1, OATP1B3 (Homo sapiens, UniProt Q9NPD5).
T1 construct: expressed in transfected cells; host or cells: A431 cells
T1 sequence (Q9NPD5 1-702): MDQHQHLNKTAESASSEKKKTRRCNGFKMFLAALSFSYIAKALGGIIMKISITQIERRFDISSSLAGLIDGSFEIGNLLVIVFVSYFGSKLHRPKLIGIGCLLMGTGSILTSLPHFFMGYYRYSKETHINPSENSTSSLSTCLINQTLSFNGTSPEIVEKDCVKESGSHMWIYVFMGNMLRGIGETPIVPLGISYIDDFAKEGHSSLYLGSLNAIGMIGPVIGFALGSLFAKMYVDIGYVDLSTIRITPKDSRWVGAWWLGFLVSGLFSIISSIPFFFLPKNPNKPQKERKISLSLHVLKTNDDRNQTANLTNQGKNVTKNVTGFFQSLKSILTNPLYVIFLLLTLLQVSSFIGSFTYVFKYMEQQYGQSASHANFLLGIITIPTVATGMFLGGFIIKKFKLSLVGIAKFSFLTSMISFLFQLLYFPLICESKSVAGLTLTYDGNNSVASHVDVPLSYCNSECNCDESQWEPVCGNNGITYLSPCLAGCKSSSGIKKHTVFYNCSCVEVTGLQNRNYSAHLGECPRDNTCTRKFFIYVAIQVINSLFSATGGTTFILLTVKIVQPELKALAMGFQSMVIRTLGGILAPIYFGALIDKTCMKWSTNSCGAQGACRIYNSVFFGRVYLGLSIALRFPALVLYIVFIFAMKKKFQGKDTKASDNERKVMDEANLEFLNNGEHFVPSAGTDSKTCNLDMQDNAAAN
The experiment in a line: Pyranine transport inhibition in A431 cells overexpressing OATP1B3. The settings on record: for IC50: read-out: IC50 (μM) OATP1B3. Here is the method: (§1) A431 cells overexpressing OATP1B1, OATP1B3, or OATP2B1 or their mock transfected controls were generated previously[30] and maintained in Dulbecco’s modified Eagle medium (DMEM, Gibco, Thermofisher Scientific, Waltham, MA, US) supplemented with 10% fetal bovine serum, 2 mM L-glutamine, 100 units/mL penicillin, and 100 μg/mL streptomycin. Expression and function of OATPs in the cell lines were checked regularly.
(§2) Interaction with OATP1B1, OATP1B3, or OATP2B1 was tested in an indirect transport assay using pyranine (8-hydroxypyrene-1,3,6-trisulfonic acid trisodium salt, H1529, Sigma, Merck, Budapest, Hungary) as the test substrate[31],[32] A431 cells overexpressing OATP1B1, OATP1B3, or OATP2B1 or their mock transfected controls were seeded on 96-well plates in a density of 8 × 10^4 cells per well in 200 μL of cell culture medium 1 day prior to the transport measurements. […] The transport reaction was started by the addition of 50 μL of uptake buffer containing pyranine in a final concentration of 10 μM (OATP1B1) or 20 μM (OATP1B3 and OATP2B1), and the cells were further incubated at 37 °C for 15 min (OATP1B1 and OATP2B1) or 30 min (OATP1B3). The reaction was stopped by removing the supernatant. After repeated washing with ice-cold PBS, fluorescence was determined in an Enspire plate reader (PerkinElmer, Waltham, MA) with excitation/emission wavelengths of 460/510 nm. OATP-dependent transport was calculated by extracting fluorescence measured in mock transfected cells and normalized to the fluorescence signal obtained in the absence of the tested compounds (100%). Experiments were repeated in at least three biological replicates.

A further assay has as its target T2, OATP1B1 (Homo sapiens, UniProt Q9Y6L6).
T2 construct: expressed in transfected cells; host or cells: A431 cells
T2 sequence (Q9Y6L6 1-691): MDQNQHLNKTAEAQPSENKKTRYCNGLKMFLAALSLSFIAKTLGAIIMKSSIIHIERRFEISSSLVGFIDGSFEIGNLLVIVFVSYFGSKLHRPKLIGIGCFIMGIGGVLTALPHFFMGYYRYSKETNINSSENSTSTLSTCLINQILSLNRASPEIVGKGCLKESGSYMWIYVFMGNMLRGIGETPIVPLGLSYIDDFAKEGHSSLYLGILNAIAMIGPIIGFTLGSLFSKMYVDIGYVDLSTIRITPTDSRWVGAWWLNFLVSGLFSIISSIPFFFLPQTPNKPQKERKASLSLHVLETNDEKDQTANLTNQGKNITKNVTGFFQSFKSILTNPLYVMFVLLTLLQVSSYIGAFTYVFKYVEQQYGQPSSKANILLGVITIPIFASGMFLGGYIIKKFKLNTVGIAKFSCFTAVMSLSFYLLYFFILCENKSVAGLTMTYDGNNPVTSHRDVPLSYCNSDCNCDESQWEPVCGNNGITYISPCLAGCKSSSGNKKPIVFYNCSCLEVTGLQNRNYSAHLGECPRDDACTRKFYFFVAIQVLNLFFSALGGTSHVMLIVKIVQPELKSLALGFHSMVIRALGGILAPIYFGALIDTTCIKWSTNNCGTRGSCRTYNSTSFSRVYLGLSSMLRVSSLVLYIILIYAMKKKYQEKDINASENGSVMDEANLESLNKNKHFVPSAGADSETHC
The experiment in a line: Pyranine transport inhibition in A431 cells overexpressing OATP1B1. Here is the method:
as §1, §2

A further assay has as its target T3, OATP2B1 (Homo sapiens, UniProt O94956).
T3 construct: expressed in transfected cells; host or cells: A431 cells
T3 sequence (O94956 1-709): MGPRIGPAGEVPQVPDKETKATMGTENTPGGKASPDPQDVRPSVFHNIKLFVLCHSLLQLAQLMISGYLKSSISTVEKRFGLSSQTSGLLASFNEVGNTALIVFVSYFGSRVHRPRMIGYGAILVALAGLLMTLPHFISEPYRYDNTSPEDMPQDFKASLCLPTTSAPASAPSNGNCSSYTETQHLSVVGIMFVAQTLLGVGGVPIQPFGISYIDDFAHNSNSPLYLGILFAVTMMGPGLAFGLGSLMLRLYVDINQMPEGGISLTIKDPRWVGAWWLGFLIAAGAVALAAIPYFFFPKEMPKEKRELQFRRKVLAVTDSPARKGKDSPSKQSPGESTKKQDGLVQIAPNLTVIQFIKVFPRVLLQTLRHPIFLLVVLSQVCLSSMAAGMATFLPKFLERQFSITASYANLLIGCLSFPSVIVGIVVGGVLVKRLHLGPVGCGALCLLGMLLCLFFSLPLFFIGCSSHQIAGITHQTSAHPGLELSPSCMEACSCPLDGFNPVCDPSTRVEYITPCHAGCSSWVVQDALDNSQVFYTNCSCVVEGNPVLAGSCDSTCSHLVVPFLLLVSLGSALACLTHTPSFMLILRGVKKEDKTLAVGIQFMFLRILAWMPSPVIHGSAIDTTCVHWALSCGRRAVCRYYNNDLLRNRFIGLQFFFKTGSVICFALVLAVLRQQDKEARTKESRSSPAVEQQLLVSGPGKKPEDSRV
The experiment in a line: Pyranine transport inhibition in A431 cells overexpressing OATP2B1. The method, then:
as §1, §2

Setting [1] is: full dose-response curve, eight concentrations, Hill1 fit.
The mark [2] stands for this setting: initial three-point screen (1, 10, 100 μM), category by concentration needed for 50% inhibition, pyranine 20 μM, 30 min, pH 5.5.
The mark [3] stands for this setting: full dose-response curve, eight concentrations, Hill1 fit, read-out: IC50 (μM) OATP1B1.
Setting [4] is: initial three-point screen (1, 10, 100 μM), category by concentration needed for 50% inhibition, pyranine 10 μM, 15 min, pH 5.5, read-out: IC50 (μM) OATP1B1.
Setting [5] is: full dose-response curve, eight concentrations, Hill1 fit, read-out: IC50 (μM) OATP2B1.
[6] abbreviates: initial three-point screen (1, 10, 100 μM), category by concentration needed for 50% inhibition, pyranine 20 μM, 15 min, pH 5.5, read-out: IC50 (μM) OATP2B1.
Setting [7] is: initial three-point screen (1, 10, 100 μM), category by concentration needed for 50% inhibition, pyranine 10 μM, 15 min, pH 5.5.

Where two headings read alike, the source gives them in different places.

As usually defined, the IC50 is the concentration at which inhibition is half-maximal. On to `Cn1c(=O)[nH]c(=O)c2c1nc(N/N=C1/C(=O)Nc3ccccc31)n2CCCc1ccccc1` [E3, CN1C(=O)NC(=O)c2c1nc(N\N=C/3\C(=O)Nc4ccccc34)n2CCCc5ccccc5], for which the concentration for half-maximal inhibition (IC50) at OATP1B3 (setting [1]) is 1.53 µM; on OATP1B3 (setting [2]) it was 1 to 10 µM; at OATP1B1 (setting [3]), 2.69 µM; at OATP1B1 (setting [4]), 1 to 10 µM; at OATP2B1 (setting [5]), 1.32 µM.

Turning to `O=C(NCc1cn(Cc2ccccc2)nc1-c1ccccc1)c1cc(F)cc(F)c1` [E5, Fc1cc(F)cc(c1)C(=O)NCc2cn(Cc3ccccc3)nc2c4ccccc4], the IC50 is 7.5 µM at OATP1B3 (setting [1]), 7.61 µM on OATP1B1 (setting [3]), 1 to 10 µM on OATP1B1 (setting [4]) and 1.48 µM on OATP2B1 (setting [5]).

In the case of `CCn1cnc2c1c(=O)n(CC(=O)NC1CCCC(C)C1C)c(=O)n2Cc1ccccc1` (stereo not drawn) [E6, CCn1cnc2N(Cc3ccccc3)C(=O)N(CC(=O)NC4CCCC(C)C4C)C(=O)c12], the IC50 at OATP1B3 (setting [2]) was above 10 µM; at OATP1B1 (setting [4]) it was above 10 µM; on OATP2B1 (setting [6]), 1 to 10 µM.

For `O=C(Nc1ccccc1)N1CCCC(C(=O)N2CCN(Cc3nc4ccccc4s3)CC2)C1` (stereo not drawn) [F3, O=C(Nc1ccccc1)N2CCCC(C2)C(=O)N3CCN(Cc4nc5ccccc5s4)CC3], the IC50 on OATP1B3 (setting [2]), on OATP1B1 (setting [4]) and at OATP2B1 (setting [6]) was above 10 µM throughout.

Consider `Cc1ccc(OCc2nnc(SCC(=O)N3CCN(C(=O)Nc4ccccc4)CC3)o2)cc1` [F4, Cc1ccc(OCc2oc(SCC(=O)N3CCN(CC3)C(=O)Nc4ccccc4)nn2)cc1], for which the “IC50 (μM) OATP1B3” value against OATP1B3 (setting [2]) was “Activated”. The IC50 was above 10 µM at OATP1B1 and above 10 µM at OATP2B1 (IC50 (μM) OATP2B1, initial three-point screen (1, 10, 100 μM), category by concentration needed for 50% inhibition, pyranine 20 μM, 15 min, pH 5.5).

In the case of `Cc1cc(NS(=O)(=O)c2ccc(NC(=O)Cc3coc4c(C)c(C)ccc34)cc2)nc(C)n1` [F5, Cc1cc(NS(=O)(=O)c2ccc(NC(=O)Cc3coc4c(C)c(C)ccc34)cc2)nc(C)n1], the IC50 at OATP1B3 (setting [2]), at OATP1B1 (setting [4]) and on OATP2B1 (setting [6]) was 1 to 10 µM in each case.

For `O=C(NCc1ccc(N2CCOCC2)nc1)c1ccccc1CSc1nc2ccccc2[nH]1` [F6, O=C(NCc1ccc(nc1)N2CCOCC2)c3ccccc3CSc4nc5ccccc5[nH]4], the IC50 on OATP1B3 (setting [2]) is above 10 µM; at OATP1B1 (setting [4]), above 10 µM; on OATP2B1 (setting [6]) it was 1 to 10 µM.

On to `O=C(Nc1ccccc1)C1CCN(C(=O)c2cc(-c3ccccc3)nc3ccccc23)CC1` [G2, O=C(Nc1ccccc1)C2CCN(CC2)C(=O)c3cc(nc4ccccc34)c5ccccc5], for which the half-inhibitory concentration (IC50) on OATP1B3 (setting [2]), at OATP1B1 (setting [4]) and at OATP2B1 (setting [6]) was 1 to 10 µM throughout.

With `CCC(C)c1ccc(-n2c(SCC(=O)N3c4ccccc4CC3C)nc3ccccc3c2=O)cc1` (stereo not drawn) [G4, CCC(C)c1ccc(cc1)N2C(=Nc3ccccc3C2=O)SCC(=O)N4C(C)Cc5ccccc45], the “IC50 (μM) OATP1B3” value at OATP1B3 (setting [1]) and at OATP1B3 (setting [2]) was “no effect” in each case. In addition, the “IC50 (μM) OATP1B1” value against OATP1B1 (setting [1]) and at OATP1B1 (setting [7]) was “no effect” throughout. Moreover, the values for the half-maximal inhibitory concentration (IC50) on OATP2B1 (setting [5]) and on OATP2B1 (setting [6]) were around 6 µM and 1 to 10 µM, respectively.

Turning to `COc1cc2c(cc1NC(=O)CN1C(=O)NC(Cc3c[nH]c4ccccc34)C1=O)oc1ccccc12` (stereo not drawn) [G5, COc1cc2c(oc3ccccc23)cc1NC(=O)CN4C(=O)NC(Cc5c[nH]c6ccccc56)C4=O], the IC50 at OATP1B3 (setting [2]) is 1 to 10 µM; at OATP1B1 (setting [4]), above 10 µM; at OATP2B1 (setting [6]), 1 to 10 µM.

For `Cc1ccc(N2C(=O)/C(=C\Nc3nc4ccccc4nc3N3CCCC3)c3ccccc3C2=O)c(C)c1` [G6, Cc1ccc(N2C(=O)\C(=C/Nc3nc4ccccc4nc3N5CCCC5)\c6ccccc6C2=O)c(C)c1], on OATP1B3 (setting [2]), the “IC50 (μM) OATP1B3” value is “no effect”. The “IC50 (μM) OATP1B1” value on OATP1B1 (setting [7]) is “no effect”. The half-maximal inhibitory concentration (IC50) on OATP2B1 (setting [6]) was above 10 µM.

Consider `O=C(/C=C/c1cn(Cc2ccccc2)nn1)N1CCCC(c2nc3ccccc3s2)C1` (stereo not drawn) [H2, O=C(\C=C\c1cn(Cc2ccccc2)nn1)N3CCCC(C3)c4nc5ccccc5s4], for which the IC50 on OATP1B3 (setting [2]) is above 10 µM; at OATP1B1 (setting [4]) it was above 10 µM; at OATP2B1 (setting [6]), 1 to 10 µM.

Regarding `Cc1cc(C)c(C(=O)CSc2nc3ccccc3c(=O)n2Cc2ccc(F)cc2)c(C)c1` [H4, Cc1cc(C)c(C(=O)CSC2=Nc3ccccc3C(=O)N2Cc4ccc(F)cc4)c(C)c1], the “IC50 (μM) OATP1B3” value at OATP1B3 (setting [2]) is on record as “no effect”. In addition, at OATP1B1 (setting [7]), the “IC50 (μM) OATP1B1” value is reported as “no effect”. Also, the “IC50 (μM) OATP2B1” value against OATP2B1 (initial three-point screen (1, 10, 100 μM), category by concentration needed for 50% inhibition, pyranine 20 μM, 15 min, pH 5.5) is “no effect”.
